These are literature values, as cited in patent US20160022623A1, “COMPOSITION AND USE” (THE UNIVERSITY OF NOTTINGHAM, priority 2013, published 2016).

Molecules are shown by their SMILES.

The conditions of data set [1]: 24 weeks.
Where [2] appears, read: compared to control (euglycaemic hyperinsulinaemia).
The mark [3] stands for this setting: morning following the clamp, overnight fast.

Take `C[N+](C)(C)C[C@H](O)CC(=O)[O-]` [L-carnitine]: the “Increase in muscle total carnitine content compared to carbohydrate feeding alone” value in data set [1] (1.36 g L-carnitine with 80 g carbohydrate beverage twice daily) is reported as 30%. Also, the “Reduction in muscle glycogen utilisation” value in data set [1] (low intensity exercise (50% VO2max)) is listed as 50%. In data set [1] (low intensity exercise (50% VO2max), vs Control), the “Increase in muscle free carnitine availability” value is reported as 80%. Further, under setting [2], the “Decrease in insulin stimulated muscle PDC activation” value is on record as 30% and the “Decrease in muscle lactate accumulation” value is listed as 40%. Under “intravenous infusion, 6 h clamp, at rest”, the “Increase in skeletal muscle total carnitine content” value is 15%. Under setting [3], the “Increase in muscle glycogen content” value was 30% and the “Increase in muscle long-chain acyl-CoA content” value was 40%.
